Key:
BACE2 = BACE2 (Homo sapiens (Human), UniProt Q9Y5Z0); experiment: In vitro enzymatic BACE2 FRET assay; assay type: biochemical; details: read-out: IC50 IP (μM) BACE2 Enzyme
From the text: In Vitro Enzymatic BACE1 and BACE2 FRET (Fluorescence Resonance Energy Transfer) Assays (Enzyme Assay Data in Table 1)

Cathepsin D (CatD) = Cathepsin D (CatD) (Homo sapiens (Human), UniProt P07339); experiment: CatD assay; assay type: biochemical; details: read-out: IC50 IP (μM) CatD
Chain of Cathepsin D (CatD) (P07339 65-412, species assumed): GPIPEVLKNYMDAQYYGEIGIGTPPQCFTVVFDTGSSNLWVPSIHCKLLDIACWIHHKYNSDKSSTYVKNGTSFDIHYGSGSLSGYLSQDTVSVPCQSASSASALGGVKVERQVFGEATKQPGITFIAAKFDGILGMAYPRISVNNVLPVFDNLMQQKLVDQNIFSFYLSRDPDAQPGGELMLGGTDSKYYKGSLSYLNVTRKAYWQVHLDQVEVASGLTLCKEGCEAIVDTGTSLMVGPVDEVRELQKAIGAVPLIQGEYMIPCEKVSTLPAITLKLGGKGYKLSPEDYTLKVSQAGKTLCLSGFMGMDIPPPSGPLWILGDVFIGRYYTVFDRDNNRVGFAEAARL

Chain of BACE2 (Q9Y5Z0 63-518): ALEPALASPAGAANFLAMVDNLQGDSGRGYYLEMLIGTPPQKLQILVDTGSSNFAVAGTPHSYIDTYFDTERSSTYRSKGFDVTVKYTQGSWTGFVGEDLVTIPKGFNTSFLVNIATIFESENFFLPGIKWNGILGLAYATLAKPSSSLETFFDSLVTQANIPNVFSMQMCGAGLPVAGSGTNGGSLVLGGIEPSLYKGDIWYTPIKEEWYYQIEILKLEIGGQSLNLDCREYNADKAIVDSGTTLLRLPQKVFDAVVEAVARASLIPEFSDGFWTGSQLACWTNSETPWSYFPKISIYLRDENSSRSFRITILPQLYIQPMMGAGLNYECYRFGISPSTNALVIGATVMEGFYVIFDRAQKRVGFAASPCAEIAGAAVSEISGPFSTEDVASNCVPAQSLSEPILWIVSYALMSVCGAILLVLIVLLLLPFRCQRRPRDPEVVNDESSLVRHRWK

IC50 (BACE2)	IC50 (Cathepsin D (CatD))	Compound
0.041 µM	434 µM	C[C@@]1(O)CCN(C(=O)[C@]23C[C@H]2[C@@](C)(c2cc(/C=C(\F)c4ccc(C#N)cn4)ccc2F)N=C(N)S3)C1 (single isomer, unassigned) [Example 310]
0.127 µM	302 µM	COC(=O)[C@]12C[C@H]1[C@@](C)(c1cc(/C=C(\F)c3ccc(Br)cn3)ccc1F)N=C(N)S2 [Example 105, (1S,5S,6S)-methyl 3-amino-5-(5-((Z)-2-(5-bromopyridin-2-yl)-2-fluorovinyl)-2-fluorophenyl)-5-methyl-2-thia-4-azabicyclo[4.1.0]hept-3-ene-1-carboxylate]
0.102 µM	734 µM	COC(=O)[C@]12C[C@H]1[C@@](C)(c1cc(/C=C(\F)c3ccc(Cl)cn3)ccc1F)N=C(N)S2 [Example 111, (1S,5S,6S)-methyl 3-amino-5-(5-((Z)-2-(5-chloropyridin-2-yl)-2-fluorovinyl)-2-fluorophenyl)-5-methyl-2-thia-4-azabicyclo[4.1.0]hept-3-ene-1-carboxylate]
	97.6 µM	C[C@]1(c2cc(/C=C(\F)c3ccc(Cl)cn3)ccc2F)N=C(N)S[C@@]2(C(=O)N3CCC3)C[C@H]21 [Example 112, ((1S,5S,6S)-3-amino-5-(5-((Z)-2-(5-chloropyridin-2-yl)-2-fluorovinyl)-2-fluorophenyl)-5-methyl-2-thia-4-azabicyclo[4.1.0]hept-3-en-1-yl)(azetidin-1-yl)methanone]
0.0339 µM	400 µM	C[C@]1(c2cc(/C=C(\F)c3ccc(Cl)cn3)ccc2F)N=C(N)S[C@@]2(CO)C[C@H]21 [Example 113, ((1S,5S,6S)-3-amino-5-(5-((Z)-2-(5-chloropyridin-2-yl)-2-fluorovinyl)-2-fluorophenyl)-5-methyl-2-thia-4-azabicyclo[4.1.0]hept-3-en-1-yl)methanol]
	57.6 µM	CC(O)CCNC(=O)[C@]12C[C@H]1[C@@](C)(c1cc(/C=C(\F)c3ccc(Cl)cn3)ccc1F)N=C(N)S2 (stereo partly drawn) [Example 115, (1S,5S,6S)-3-amino-5-(5-((Z)-2-(5-chloropyridin-2-yl)-2-fluorovinyl)-2-fluorophenyl)-N-(3-hydroxybutyl)-5-methyl-2-thia-4-azabicyclo[4.1.0]hept-3-ene-1-carboxamide]
0.0209 µM	166 µM	COC[C@@H]1CCCN1C(=O)[C@]12C[C@H]1[C@@](C)(c1cc(/C=C(\F)c3ccc(Cl)cn3)ccc1F)N=C(N)S2 [Example 117, ((1S,5S,6S)-3-amino-5-(5-((Z)-2-(5-chloropyridin-2-yl)-2-fluorovinyl)-2-fluorophenyl)-5-methyl-2-thia-4-azabicyclo[4.1.0]hept-3-en-1-yl)((S)-2-(methoxymethyl)pyrrolidin-1-yl)methanone]
0.164 µM	52.9 µM	C[C@]1(c2cc(/C=C(\F)c3ccc(C#N)cn3)ccc2F)N=C(N)S[C@@]2(C(=O)NC3CC3)C[C@H]21 [Example 121, (1S,5S,6S)-3-amino-5-(5-((Z)-2-(5-cyanopyridin-2-yl)-2-fluorovinyl)-2-fluorophenyl)-N-cyclopropyl-5-methyl-2-thia-4-azabicyclo[4.1.0]hept-3-ene-1-carboxamide]
0.0892 µM	144 µM	C[C@]1(c2cc(/C=C(\F)c3ccc(C#N)cn3)ccc2F)N=C(N)S[C@@]2(C(=O)NC3CCOCC3)C[C@H]21 [Example 128, (1S,5S,6S)-3-amino-5-(5-((Z)-2-(5-cyanopyridin-2-yl)-2-fluorovinyl)-2-fluorophenyl)-5-methyl-N-(tetrahydro-2H-pyran-4-yl)-2-thia-4-azabicyclo[4.1.0]hept-3-ene-1-carboxamide]
0.015 µM	96.9 µM	C[C@]1(c2cc(/C=C(\F)c3ccc(C#N)cn3)ccc2F)N=C(N)S[C@@]2(C(=O)N3CCN(c4ccccc4)CC3)C[C@H]21 [Example 131, 6-((Z)-2-(3-((1S,5S,6S)-3-amino-5-methyl-1-(4-phenylpiperazine-1-carbonyl)-2-thia-4-azabicyclo[4.1.0]hept-3-en-5-yl)-4-fluorophenyl)-1-fluorovinyl)nicotinonitrile]
0.0758 µM	1690 µM	C[C@]1(c2cc(/C=C(\F)c3ccc(C#N)cn3)ccc2F)N=C(N)S[C@@]2(C(=O)N3CC4CC3CO4)C[C@H]21 (stereo partly drawn) [Example 132, 6-((Z)-2-(3-((1S,5S,6S)-3-amino-1-(2-oxa-5-azabicyclo[2.2.1]heptane-5-carbonyl)-5-methyl-2-thia-4-azabicyclo[4.1.0]hept-3-en-5-yl)-4-fluorophenyl)-1-fluorovinyl)nicotinonitrile]
0.099 µM	146 µM	C[C@@H]1CC[C@@H](C)N1C(=O)[C@]12C[C@H]1[C@@](C)(c1cc(/C=C(\F)c3ccc(C#N)cn3)ccc1F)N=C(N)S2 [Example 133, 6-((Z)-2-(3-((1S,5S,6S)-3-amino-1-((2R,5R)-2,5-dimethylpyrrolidine-1-carbonyl)-5-methyl-2-thia-4-azabicyclo[4.1.0]hept-3-en-5-yl)-4-fluorophenyl)-1-fluorovinyl)nicotinonitrile]
0.8 µM	400 µM	CN(C)[C@@H]1CCN(C(=O)[C@]23C[C@H]2[C@@](C)(c2cc(/C=C(\F)c4ccc(C#N)cn4)ccc2F)N=C(N)S3)C1 [Example 134, 6-((Z)-2-(3-((1S,5S,6S)-3-amino-1-((R)-3-(dimethylamino)pyrrolidine-1-carbonyl)-5-methyl-2-thia-4-azabicyclo[4.1.0]hept-3-en-5-yl)-4-fluorophenyl)-1-fluorovinyl)nicotinonitrile]
0.00166 µM	5.5 µM	C[C@]1(c2cc(/C=C(\F)c3ccc(C#N)cn3)ccc2F)N=C(N)S[C@@]2(C(=O)N3CC[C@@H]4CCCC[C@H]4C3)C[C@H]21 [Example 135, 6-((Z)-2-(3-((1S,5S,6S)-3-amino-1-((4aS,8aR)-decahydroisoquinoline-2-carbonyl)-5-methyl-2-thia-4-azabicyclo[4.1.0]hept-3-en-5-yl)-4-fluorophenyl)-1-fluorovinyl)nicotinonitrile]
0.21 µM	43.2 µM	CC1CC(C)CN(C(=O)[C@]23C[C@H]2[C@@](C)(c2cc(/C=C(\F)c4ccc(C#N)cn4)ccc2F)N=C(N)S3)C1 (stereo partly drawn) [Example 137, 6-((Z)-2-(3-((1S,5S,6S)-3-amino-1-(3,5-dimethylpiperidine-1-carbonyl)-5-methyl-2-thia-4-azabicyclo[4.1.0]hept-3-en-5-yl)-4-fluorophenyl)-1-fluorovinyl)nicotinonitrile]

Compound	IC50 (BACE2)	IC50 (Cathepsin D (CatD))
CNC(=O)[C@]12C[C@H]1[C@@](C)(c1cc(/C=C(\F)c3cnc(OCC(F)(F)C(F)F)cn3)ccc1F)N=C(N)S2 [Example 161, (1S,5S,6S)-3-amino-5-(2-fluoro-5-((Z)-2-fluoro-2-(5-(2,2,3,3-tetrafluoropropoxy)pyrazin-2-yl)vinyl)phenyl)-N,5-dimethyl-2-thia-4-azabicyclo[4.1.0]hept-3-ene-1-carboxamide]	0.755 µM	
C#Cc1cnc(/C(F)=C/c2ccc(F)c([C@@]3(C)N=C(N)S[C@@]4(C(=O)NC)C[C@H]43)c2)cn1 [Example 167, (1S,5S,6S)-3-amino-5-(5-((Z)-2-(5-ethynylpyrazin-2-yl)-2-fluorovinyl)-2-fluorophenyl)-N,5-dimethyl-2-thia-4-azabicyclo[4.1.0]hept-3-ene-1-carboxamide]	0.16 µM	
